Experiments:
[1] = MTT Cell Proliferation Assay (CellTiter 96 AQueous One Solution, MTS); format: cell-based; conditions: human; 72 h treatment; cell line not given; read-out: Cytotoxicity [IC50]
Excerpt: The CellTiter 96® AQueous One Solution cell proliferation assay (Promega) was used on MM1.S, Jurkat and HCT-116 cells to study the cytotoxic and cytostatic properties of the compounds. The assay is based on the cleavage of the tetrazolium salt, MTS, in the presence of an electron-coupling reagent PES (phenazine ethosulfate). The MTS tetrazolium compound is bioreduced by cells into a colored formazan product that is soluble in tissue culture medium. This conversion is presumably accomplished by NADPH or NADH produced by dehydrogenase enzymes in metabolically active cells. Assays are performed by adding a small amount of the CellTiter 96® AQueous One solution reagent directly to culture wells, incubating for 1-4 hours and then recording the absorbance at 490 nm with a 96-well plate reader. […] The cells were seeded at 5×10^3 to 1.5×10^4 cells (depending on cell type) in each well of 96-well plate in 100 μL of fresh culture medium and adherent cells were allowed to attach for overnight. The stock solutions of the compounds were diluted in cell culture medium to obtain eight concentrations of each drug, ranging from 1 nM to 30 μM and DMSO at less than 1% v/v was used as a negative control. After 72 h of treatment 20 μl of CellTiter 96® AQueous reagent was added into each well of the 96-well assay plates and the plate was incubate at 37° C. for 1-4 hours in a humidified, 5% CO2 atmosphere. Then the absorbance of each well was recorded at 490 nm by using a 96-well plate reader. In most cases the assay was performed in triplicates and the results were presented as half maximal inhibitory concentration (IC50) described below. Optical density versus compound concentration was plotted and analyzed using non linear regression equations (Excel Fit) and the IC50 for each compound was calculated.

[2] = Brain to plasma ratio (B:P) in mice; format: in vivo; conditions: for Kp at 2 h: mouse, brain and plasma, 10 mg/kg po, 2 hours post-dose
Procedure: Brain tissue following collection was rinsed with cold saline, dried on filter paper, weighed and snap-frozen by placing on dry ice. All samples were stored frozen at approximately −80° C. until analysis. […] Plasma samples were treated with the identical method (except homogenization step) and concentration of compound in either matrix was calculated based on the generated standard curves.

[3] = Pharmacokinetics (plasma AUC) in mice; format: in vivo; conditions: mouse
Procedure: Blood was collected from mice (N=3) to contribute to the total of 10 time points (pre-dose, 5 min, 15 min, 30 min, 1 hour, 2 hours, 4 hours, 8 hours, 12 hours and 24 hours post dose). Mice were bled on a rotating basis, each mouse contributing 3 time points to the blood collection. At the designated time points, animals were anaesthetized under isoflurane, and approximately 110 μL of blood per time point was collected via retro-orbital puncture into pre-cooled K2EDTA (anti-coagulant) tubes. Blood samples were put on wet ice and centrifuged (2000 g, 5 min at 4° C.) to obtain plasma within 30 minutes of sample collection. All samples were stored frozen at approximately −80° C. until analysis. Prior to analysis, samples were mixed with internal standard (dexamethasone) in acetonitrile, vortexed, centrifuged, and supernatant was injected for analysis. Concentration of compounds in plasma was determined using LC-MS-MS instrumentation (API 4000, Triple Quadruple with electrospray ionization; Acuity Ultra Performance Liquid Chromatography column C18, with MeOH and formic acid as organic solvents). PK parameters including but not limited to Tmax, Cmax, t1/2, AUClast, AUCinf were calculated using WinNonlin Professional 6.2 software package, non-compartmental pharmacokinetic model NCA200.

CRM1 = biological target: T1, CRM1 (Homo sapiens, UniProt O14980); experiment: RevGFP assay: inhibition of CRM1 mediated nuclear export; format: cell-based; conditions: U2OS-RevGFP cells, ~1 hr with compound; read-out: Rev Export [IC50]
T1 construct: endogenous in cells; host or cells: U2OS-RevGFP cells
Procedure: The inhibition of CRM1 mediated nuclear export by compounds of the invention was determined. The inhibitory activity of compounds for the CRM1 protein was determined in the RevGFP assay.
Experimental protocol: Rev is a protein from human immunodeficiency virus type 1 (HIV-1) and contains a nuclear export signal (NES) in its C-terminal domain and a nuclear localization signal (NLS) in its N-terminal domain. Nuclear export of Rev protein is dependent on the classical NES/CRM1 pathway (Neville et al, 1997, Kau et al, 2003). Nuclear accumulation of Rev is observed in cells treated with specific inhibitors of CRM1, such as LMB (Kau et al, 2003). In this assay, U2OS-RevGFP cells are seeded onto clear-bottom, black, 384-well plates the day before the experiment. Compounds are serially diluted 1:2 starting from 40 μM in a separate 384-well plate in DMEM, and then transferred onto cells. Cells are incubated with compound for ˜1 hr before fixation with 3.7% formaldehyde and nuclei staining with Hoechst 33258. The amount of GFP in cell nuclei was measured and compound IC50s were determined (Kau et al, 2003).

T1 sequence (O14980 whole entry): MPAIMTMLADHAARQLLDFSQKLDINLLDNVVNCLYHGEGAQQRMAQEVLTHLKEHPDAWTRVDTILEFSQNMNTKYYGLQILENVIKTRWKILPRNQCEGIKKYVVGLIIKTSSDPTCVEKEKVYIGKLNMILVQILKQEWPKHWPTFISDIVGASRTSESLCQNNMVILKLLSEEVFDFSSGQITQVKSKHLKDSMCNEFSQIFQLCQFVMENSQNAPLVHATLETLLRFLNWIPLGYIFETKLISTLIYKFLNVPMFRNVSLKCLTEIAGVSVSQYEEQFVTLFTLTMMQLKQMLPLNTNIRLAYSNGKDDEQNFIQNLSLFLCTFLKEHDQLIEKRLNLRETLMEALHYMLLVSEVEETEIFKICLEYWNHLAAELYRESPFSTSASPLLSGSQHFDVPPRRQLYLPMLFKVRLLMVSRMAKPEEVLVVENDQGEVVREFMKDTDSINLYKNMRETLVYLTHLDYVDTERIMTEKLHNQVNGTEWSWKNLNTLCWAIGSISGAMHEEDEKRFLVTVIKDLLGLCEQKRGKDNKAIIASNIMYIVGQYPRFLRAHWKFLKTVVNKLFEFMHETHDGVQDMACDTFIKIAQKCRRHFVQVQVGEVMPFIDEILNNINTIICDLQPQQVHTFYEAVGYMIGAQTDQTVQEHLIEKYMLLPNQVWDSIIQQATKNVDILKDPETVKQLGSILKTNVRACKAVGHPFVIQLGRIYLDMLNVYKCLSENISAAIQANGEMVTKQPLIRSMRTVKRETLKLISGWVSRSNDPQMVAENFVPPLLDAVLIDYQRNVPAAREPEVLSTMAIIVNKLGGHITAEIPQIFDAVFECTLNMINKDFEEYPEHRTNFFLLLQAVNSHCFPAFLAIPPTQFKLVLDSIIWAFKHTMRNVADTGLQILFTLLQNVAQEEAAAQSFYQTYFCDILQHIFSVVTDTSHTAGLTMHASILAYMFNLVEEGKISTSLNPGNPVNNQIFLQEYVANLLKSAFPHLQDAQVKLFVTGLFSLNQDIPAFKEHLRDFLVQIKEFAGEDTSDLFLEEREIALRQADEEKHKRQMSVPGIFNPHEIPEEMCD

| IC50 (CRM1) | Kp at 2 h [2] | AUC(0-inf) ([3]; 10 mg/kg po) | AUC(0-inf) ([3]; 5 mg/kg po) | SMILES | IC50 at 72 h [1] | levels in the brain ([2]; dosed po) | AUC(0-inf) ([3]; 5 mg/kg iv) |
| --- | --- | --- | --- | --- | --- | --- | --- |
| < 1000 nM | 0.06 | 19600 ng·h/mL | – | O=C(/C=C\n1cnc(-c2cc(C(F)(F)F)cc(C(F)(F)F)c2)n1)NNC(=O)C(=O)N1CCOCC1 [Compound 12, (Z)-3-(3-(3,5-bis(trifluoromethyl)phenyl)-1H-1,2,4-triazol-1-yl)-N′-(2-morpholino-2-oxoacetyl)acrylohydrazide] | < 1000 nM | – | – |
| – | 0 | 1420 ng·h/mL | – | O=C(/C=C\n1cnc(-c2cc(C(F)(F)F)cc(C(F)(F)F)c2)n1)NNC(=O)CN1CCOCC1=O [Compound 14, (Z)-3-(3-(3,5-bis(trifluoromethyl)phenyl)-1H-1,2,4-triazol-1-yl)-N′-(2-(3-oxomorpholino)acetyl)acrylohydrazide] | < 1000 nM | – | – |
| – | 1.5 | 1100 ng·h/mL | – | CC1COCC(C)N1CC(=O)NNC(=O)/C=C\n1cnc(-c2cc(C(F)(F)F)cc(C(F)(F)F)c2)n1 (stereo not drawn) [Compound 13, (Z)-3-(3-(3,5-bis(trifluoromethyl)phenyl)-1H-1,2,4-triazol-1-yl)-N′-(2-(3,5-dimethylmorpholino)acetyl)acrylohydrazide] | < 1000 nM | – | – |
| – | – | – | 671 ng·h/mL | CN1CCC(C(=O)NNC(=O)/C=C\n2cnc(-c3cc(C(F)(F)F)cc(C(F)(F)F)c3)n2)CC1 [Compound 9, (Z)—N′-(3-(3-(3,5-bis(trifluoromethyl)phenyl)-1H-1,2,4-triazol-1-yl)acryloyl)-1-methylpiperidine-4-carbohydrazide] | < 1000 nM | – | – |
| – | 0 | 588 ng·h/mL | – | CC1(C)COCCN1CC(=O)NNC(=O)/C=C\n1cnc(-c2cc(C(F)(F)F)cc(C(F)(F)F)c2)n1 [Compound 15, (Z)-3-(3-(3,5-bis(trifluoromethyl)phenyl)-1H-1,2,4-triazol-1-yl)-N′-(2-(3,3-dimethylmorpholino)acetyl)acrylohydrazide] | < 1000 nM | – | – |

The next lines start with the molecule.

| SMILES | IC50 (CRM1) | Kp at 2 h [2] | AUC(0-inf) ([3]; 10 mg/kg po) | AUC(0-inf) ([3]; 5 mg/kg po) | IC50 at 72 h [1] | levels in the brain ([2]; dosed po) | AUC(0-inf) ([3]; 5 mg/kg iv) |
| --- | --- | --- | --- | --- | --- | --- | --- |
| COc1cc(-c2ncn(/C=C\C(=O)OC(C)C)n2)cc(C(F)(F)F)c1 [Compound X-1, reference compound] | < 1000 nM | – | – | – | < 1000 nM | below the quantitation limit | 209 ng·h/mL |
| Cc1[nH]ncc1C(=O)NNC(=O)/C=C\n1cnc(-c2cc(C(F)(F)F)cc(C(F)(F)F)c2)n1 [Compound 3, (Z)—N′-(3-(3-(3,5-bis(trifluoromethyl)phenyl)-1H-1,2,4-triazol-1-yl)acryloyl)-5-methyl-1H-pyrazole-4-carbohydrazide] | < 1000 nM | 0.03 | 15200 ng·h/mL | – | < 1000 nM | – | – |
| O=C(/C=C\n1cnc(-c2cc(C(F)(F)F)cc(C(F)(F)F)c2)n1)NNC(=O)C1CCCNC1 (stereo not drawn) [Compound 6, (Z)—N′-(3-(3-(3,5-bis(trifluoromethyl)phenyl)-1H-1,2,4-triazol-1-yl)acryloyl)piperidine-3-carbohydrazide] | – | – | – | – | < 1000 nM | – | – |
| O=C(/C=C\n1cnc(-c2cc(C(F)(F)F)cc(C(F)(F)F)c2)n1)NNC(=O)Cc1cnccn1 [Compound 11, (Z)-3-(3-(3,5-bis(trifluoromethyl)phenyl)-1H-1,2,4-triazol-1-yl)-N′-(2-(pyrazin-2-yl)acetyl)acrylohydrazide] | – | 0.095 | 8340 ng·h/mL | – | < 1000 nM | – | – |
| CC(C)[C@H](N)C(=O)NNC(=O)/C=C\n1cnc(-c2cc(C(F)(F)F)cc(C(F)(F)F)c2)n1 [Compound 7, (S,Z)-2-amino-N′-(3-(3-(3,5-bis(trifluoromethyl)phenyl)-1H-1,2,4-triazol-1-yl)acryloyl)-3-methylbutanehydrazide 2,2,2-trifluoroacetate] | – | – | – | – | < 1000 nM | – | – |
| CN(NC(=O)/C=C\n1cnc(-c2cc(C(F)(F)F)cc(C(F)(F)F)c2)n1)C(=O)CN1CCOCC1 [Compound 5, (Z)-3-(3-(3,5-bis(trifluoromethyl)phenyl)-1H-1,2,4-triazol-1-yl)-N′-methyl-N′-(2-morpholinoacetyl)acrylohydrazide] | – | – | – | – | < 1000 nM | – | – |
| O=C(/C=C\n1cnc(-c2cc(C(F)(F)F)cc(C(F)(F)F)c2)n1)NNC(=O)c1cnccn1 [Compound 8, (Z)—N′-(3-(3-(3,5-bis(trifluoromethyl)phenyl)-1H-1,2,4-triazol-1-yl)acryloyl)pyrazine-2-carbohydrazide] | – | 0.41 | 9150 ng·h/mL | – | < 1000 nM | – | – |
| O=C(/C=C\n1cnc(-c2cc(C(F)(F)F)cc(C(F)(F)F)c2)n1)NNC(=S)NC1CC1 [Compound 4, (Z)-2-(3-(3-(3,5-bis(trifluoromethyl)phenyl)-1H-1,2,4-triazol-1-yl)acryloyl)-N-cyclopropylhydrazinecarbothioamide] | – | 0.028 | 20900 ng·h/mL | – | < 1000 nM | – | – |
| CC(C)[C@@H](N)C(=O)NNC(=O)/C=C\n1cnc(-c2cc(C(F)(F)F)cc(C(F)(F)F)c2)n1 [Compound 10, (R,Z)-2-amino-N′-(3-(3-(3,5-bis(trifluoromethyl)phenyl)-1H-1,2,4-triazol-1-yl)acryloyl)-3-methylbutanehydrazide 2,2,2-trifluoroacetate] | – | – | – | – | < 1000 nM | – | – |

— US9096543B2, “Nuclear transport modulators and uses thereof” (Karyopharm Therapeutics Inc., priority 2012, dated 2015)
